These are literature values, as cited in patent US10143695B2 (priority 2016, dated 2018).

The conditions of the series: Phase I clinical evaluation; cited from earlier work.

Each structure is given as a SMILES string.

`C=C1C[C@H]2C=Nc3cc(OCCCOc4cc5c(cc4OC)C(=O)N4CC(=C)C[C@H]4C=N5)c(OC)cc3C(=O)N2C1` [SJG-136]: the adverse effects noted result is “vascular leak syndrome, peripheral edema, liver toxicity and fatigue”; the maximum tolerated dose was 45 μg/m^2.
